# Assay results published in patent publication US20220289794A1, “SYNTHETIC ANTIMICROBIAL PEPTIDES” (priority 2019, published 2022).
# Non-standard residues stand in square brackets, D forms with d. Residues, ends and D or L forms follow the SMILES beside them. Dip = N[C@H](C(=O)O)C(c1ccccc1)c1ccccc1; 2Nal = N[C@@H](Cc1ccc2ccccc2c1)C(=O)O
# Experiments:
# [1] = system: Pseudomonas aeruginosa (ATCC 27883); conditions: ATCC 27883
# S. aureus ATCC 29213 = conditions: ATCC 29213
# [2] = system: Escherichia coli (ATCC 25922); conditions: ATCC 25922
# human red blood cells = system: human red blood cells; set-up: unit not given beside the values
# [3] = system: Methicillin-resistant Staphylococcus aureus MRSA (ATCC BAA-1556); conditions: ATCC BAA-1556
Structure (SMILES),MIC P. aeruginosa ATCC 27883 [1] [µg/mL],MIC S. aureus ATCC 29213 (S. aureus ATCC 29213) [µg/mL],MIC E. coli ATCC 25922 [2] [µg/mL],HC50 (human red blood cells),MIC MRSA ATCC BAA-1556 [3] [µg/mL]
"N=C(N)NCCC[C@H](NC(=O)[C@H](CCCNC(=N)N)NC(=O)[C@@H](N)CCCNC(=N)N)C(=O)N[C@H](C(=O)N[C@@H](Cc1c[nH]c2ccccc12)C(=O)N[C@H](C(=O)O)C(c1ccccc1)c1ccccc1)C(c1ccccc1)c1ccccc1 [IFX-021-1, NH2-R-R-R-Dip-Trp-Dip-OH] (H-RRR[Dip]W[Dip]-OH)",50,6.2,12.5,325,6.2
"N=C(N)NCCC[C@H](NC(=O)[C@H](CCCNC(=N)N)NC(=O)[C@@H](N)CCCNC(=N)N)C(=O)N[C@H](C(=O)N[C@H](C(=O)N[C@@H](Cc1c[nH]c2ccccc12)C(=O)O)C(c1ccccc1)c1ccccc1)C(c1ccccc1)c1ccccc1 [IFX-022-1, NH2-R-R-R-Dip-Dip-Trp-OH] (H-RRR[Dip][Dip]W-OH)",50,12.5,25,380,12.5
"N=C(N)NCCC[C@H](NC(=O)[C@H](CCCNC(=N)N)NC(=O)[C@@H](N)CCCNC(=N)N)C(=O)N[C@@H](Cc1c[nH]c2ccccc12)C(=O)N[C@@H](Cc1ccc2ccccc2c1)C(=O)N[C@@H](Cc1ccc2ccccc2c1)C(=O)O [IFX-023-1, NH2-R-R-R-Trp-NaI-NaI-OH] (H-RRRW[2Nal][2Nal]-OH)",25,6.2,12.5,495,6.2
"N=C(N)NCCC[C@H](NC(=O)[C@H](CCCNC(=N)N)NC(=O)[C@@H](N)CCCNC(=N)N)C(=O)N[C@@H](Cc1ccc2ccccc2c1)C(=O)N[C@@H](Cc1c[nH]c2ccccc12)C(=O)N[C@@H](Cc1ccc2ccccc2c1)C(=O)O [IFX-024-1, NH2-R-R-R-NaI-Trp-NaI-OH] (H-RRR[2Nal]W[2Nal]-OH)",25,6.2,12.5,410,6.2
"N=C(N)NCCC[C@H](NC(=O)[C@H](CCCNC(=N)N)NC(=O)[C@@H](N)CCCNC(=N)N)C(=O)N[C@@H](Cc1ccc2ccccc2c1)C(=O)N[C@@H](Cc1ccc2ccccc2c1)C(=O)N[C@@H](Cc1c[nH]c2ccccc12)C(=O)O [IFX-025-1, NH2-R-R-R-NaI-NaI-Trp-OH] (H-RRR[2Nal][2Nal]W-OH)",50,12.5,25,375,12.5
"N=C(N)NCCC[C@H](NC(=O)[C@H](CCCNC(=N)N)NC(=O)[C@H](CCCNC(=N)N)NC(=O)[C@@H](N)CCCNC(=N)N)C(=O)N[C@@H](Cc1c[nH]c2ccccc12)C(=O)N[C@H](C(=O)N[C@H](C(=O)O)C(c1ccccc1)c1ccccc1)C(c1ccccc1)c1ccccc1 [IFX-026-1, NH2-R-R-R-R-Trp-Dip-Dip-OH] (H-RRRRW[Dip][Dip]-OH)",25,6.2,12.5,430,6.2
"N=C(N)NCCC[C@H](NC(=O)[C@H](CCCNC(=N)N)NC(=O)[C@@H](N)CCCNC(=N)N)C(=O)N[C@@H](CCCNC(=N)N)C(=O)N[C@H](C(=O)N[C@@H](Cc1c[nH]c2ccccc12)C(=O)N[C@H](C(=O)O)C(c1ccccc1)c1ccccc1)C(c1ccccc1)c1ccccc1 [IFX-027-1, NH2-R-R-R-R-Dip-Trp-Dip-OH] (H-RRRR[Dip]W[Dip]-OH)",25,3.1,12.5,910,3.1
"N=C(N)NCCC[C@H](NC(=O)[C@H](CCCNC(=N)N)NC(=O)[C@@H](N)CCCNC(=N)N)C(=O)N[C@@H](CCCNC(=N)N)C(=O)N[C@H](C(=O)N[C@H](C(=O)N[C@@H](Cc1c[nH]c2ccccc12)C(=O)O)C(c1ccccc1)c1ccccc1)C(c1ccccc1)c1ccccc1 [IFX-028-1, NH2-R-R-R-R-Dip-Dip-Trp-OH] (H-RRRR[Dip][Dip]W-OH)",50,6.2,25,570,6.2
"N=C(N)NCCC[C@H](NC(=O)[C@H](CCCNC(=N)N)NC(=O)[C@H](CCCNC(=N)N)NC(=O)[C@@H](N)CCCNC(=N)N)C(=O)N[C@@H](Cc1c[nH]c2ccccc12)C(=O)N[C@@H](Cc1ccc2ccccc2c1)C(=O)N[C@@H](Cc1ccc2ccccc2c1)C(=O)O [IFX-029-1, NH2-R-R-R-R-Trp-NaI-NaI-OH] (H-RRRRW[2Nal][2Nal]-OH)",50,3.1,12.5,400,3.1
"N=C(N)NCCC[C@H](NC(=O)[C@H](CCCNC(=N)N)NC(=O)[C@H](CCCNC(=N)N)NC(=O)[C@@H](N)CCCNC(=N)N)C(=O)N[C@@H](Cc1ccc2ccccc2c1)C(=O)N[C@@H](Cc1c[nH]c2ccccc12)C(=O)N[C@@H](Cc1ccc2ccccc2c1)C(=O)O [IFX-030-1, NH2-R-R-R-R-NaI-Trp-NaI-OH] (H-RRRR[2Nal]W[2Nal]-OH)",25,6.2,12.5,430,6.2

# The remaining lines, values ahead:
MIC P. aeruginosa ATCC 27883 [1] [µg/mL],MIC S. aureus ATCC 29213 (S. aureus ATCC 29213) [µg/mL],MIC E. coli ATCC 25922 [2] [µg/mL],HC50 (human red blood cells),MIC MRSA ATCC BAA-1556 [3] [µg/mL],Structure (SMILES)
25,6.2,25,230,6.2,"N=C(N)NCCC[C@H]1NC(=O)[C@@H](CCCNC(=N)N)NC(=O)[C@@H](CCCNC(=N)N)NC(=O)[C@@H](Cc2c[nH]c3ccccc23)NC(=O)[C@@H](Cc2c[nH]c3ccccc23)NC(=O)[C@@H](Cc2c[nH]c3ccccc23)NC(=O)[C@@H](Cc2c[nH]c3ccccc23)NC(=O)[C@@H](CCCNC(=N)N)NC1=O [IFX-032, c[arg-arg-arg-arg-trp-trp-trp-trp]] (cyclo([dR][dR][dR][dR][dW][dW][dW][dW]))"
25,6.2,12.5,95,6.2,"N=C(N)NCCC[C@@H]1NC(=O)[C@@H](CCCNC(=N)N)NC(=O)[C@H](CCCNC(=N)N)NC(=O)[C@@H](Cc2c[nH]c3ccccc23)NC(=O)[C@H](Cc2c[nH]c3ccccc23)NC(=O)[C@@H](Cc2c[nH]c3ccccc23)NC(=O)[C@H](Cc2c[nH]c3ccccc23)NC(=O)[C@@H](CCCNC(=N)N)NC1=O [IFX-033, c[Arg-arg-Arg-arg-Trp-trp-Trp-trp]] (cyclo(R[dR]R[dR]W[dW]W[dW]))"
25,6.2,12.5,320,6.2,"N=C(N)NCCC[C@@H]1NC(=O)[C@@H](CCCNC(=N)N)NC(=O)[C@H](Cc2c[nH]c3ccccc23)NC(=O)[C@@H](Cc2c[nH]c3ccccc23)NC(=O)[C@H](Cc2c[nH]c3ccccc23)NC(=O)[C@@H](Cc2c[nH]c3ccccc23)NC(=O)[C@H](CCCNC(=N)N)NC(=O)[C@@H](CCCNC(=N)N)NC1=O [IFX-034, c[arg-Arg-arg-Arg-trp-Trp-trp-Trp]] (cyclo(R[dR]R[dW]W[dW]W[dR]))"
25,6.2,12.5,670,6.2,"N=C(N)NCCC[C@@H]1NC(=O)[C@H](CCCNC(=N)N)NC(=O)[C@H](CCCNC(=N)N)NC(=O)[C@@H](Cc2c[nH]c3ccccc23)NC(=O)[C@@H](Cc2c[nH]c3ccccc23)NC(=O)[C@@H](Cc2c[nH]c3ccccc23)NC(=O)[C@@H](Cc2c[nH]c3ccccc23)NC(=O)[C@H](CCCNC(=N)N)NC1=O [IFX-035, c[Arg-Arg-Arg-Arg-trp-trp-trp-trp]] (cyclo(RRRR[dW][dW][dW][dW]))"
25,6.2,12.5,600,6.2,"N=C(N)NCCC[C@H]1NC(=O)[C@H](Cc2c[nH]c3ccccc23)NC(=O)[C@H](Cc2c[nH]c3ccccc23)NC(=O)[C@H](Cc2c[nH]c3ccccc23)NC(=O)[C@H](Cc2c[nH]c3ccccc23)NC(=O)[C@@H](CCCNC(=N)N)NC(=O)[C@@H](CCCNC(=N)N)NC(=O)[C@@H](CCCNC(=N)N)NC1=O [IFX-036, c[arg-arg-arg-arg-Trp-Trp-Trp-Trp]] (cyclo([dR][dR][dR][dR]WWWW))"
